Data from ChEMBL document CHEMBL1141575, “Preparation and in vitro biological evaluation of tetrapyrrole ethanolamide derivatives as potential anticancer agents” (Bioorg Med Chem Lett, 2008).

Key:
SiHa [1] = experiment: Survival of human SIHA cells at 1 uM under deem light after 96 hrs by MTT assay relative to control; type: functional; settings: read-out: Survival
Raji [2] = experiment: Survival of human Raji cells at 100 uM under deem light after 96 hrs by MTT assay relative to control; type: functional; settings: read-out: Survival
Daudi = experiment: Cytotoxicity against human Daudi cells under deem light after 96 hrs by MTT assay; type: functional, cell-based
K562 [3] = experiment: Cytotoxicity against human K562 cells under deem light after 96 hrs by MTT assay; type: functional, cell-based; settings: K562, 96 h
[4] = Cytotoxicity against human MDA-MB cells under deem light after 96 hrs by MTT assay; type: functional, cell-based
Raji [5] = experiment: Survival of human Raji cells at 10 uM under deem light after 96 hrs by MTT assay relative to control; type: functional; settings: read-out: Survival
[6] = Survival of human H209 cells at 100 uM under deem light after 96 hrs by MTT assay relative to control; type: functional; settings: NCI-H209, 96 h, read-out: Survival
[7] = Survival of human MDA-MB cells at 0.1 uM under deem light after 96 hrs by MTT assay relative to control; type: functional; settings: read-out: Survival
SiHa [8] = experiment: Survival of human SIHA cells at 100 uM under deem light after 96 hrs by MTT assay relative to control; type: functional; settings: read-out: Survival
K562 [9] = experiment: Survival of human K562 cells at 1 uM under deem light after 96 hrs by MTT assay relative to control; type: functional; settings: K562, 96 h, read-out: Survival
K562 [10] = experiment: Survival of human K562 cells at 100 uM under deem light after 96 hrs by MTT assay relative to control; type: functional; settings: K562, 96 h, read-out: Survival
[11] = Survival of human MDA-MB cells at 100 uM under deem light after 96 hrs by MTT assay relative to control; type: functional; settings: read-out: Survival
Raji [12] = experiment: Survival of human Raji cells at 0.1 uM under deem light after 96 hrs by MTT assay relative to control; type: functional; settings: read-out: Survival
[13] = Survival of human H209 cells at 50 uM under deem light after 96 hrs by MTT assay relative to control; type: functional; settings: NCI-H209, 96 h, read-out: Survival
K562 [14] = experiment: Survival of human K562 cells at 10 uM under deem light after 96 hrs by MTT assay relative to control; type: functional; settings: K562, 96 h, read-out: Survival
Raji [15] = experiment: Survival of human Raji cells at 50 uM under deem light after 96 hrs by MTT assay relative to control; type: functional; settings: read-out: Survival
HeLa [16] = experiment: Survival of human HeLa cells at 1 uM under deem light after 96 hrs by MTT assay relative to control; type: functional; settings: read-out: Survival
[17] = Survival of human H209 cells at 1 uM under deem light after 96 hrs by MTT assay relative to control; type: functional; settings: NCI-H209, 96 h, read-out: Survival
NCI-H69 [18] = experiment: Survival of human H69 cells at 100 uM under deem light after 96 hrs by MTT assay relative to control; type: functional; settings: NCI-H69, 96 h, read-out: Survival
[19] = Survival of human MDA-MB cells at 50 uM under deem light after 96 hrs by MTT assay relative to control; type: functional; settings: read-out: Survival
[20] = Survival of human 2780.9S cells at 10 uM under deem light after 96 hrs by MTT assay relative to control; type: functional; settings: read-out: Survival
Raji [21] = experiment: Survival of human Raji cells at 1 uM under deem light after 96 hrs by MTT assay relative to control; type: functional; settings: read-out: Survival
[22] = Survival of human 2780.9S cells at 0.1 uM under deem light after 96 hrs by MTT assay relative to control; type: functional; settings: read-out: Survival
[23] = Photohemolysis in human RBC at 375 nM under exposure to light for 10 mins; type: ADME, cell-based, Erythrocyte; settings: human red blood cells, read-out: Activity
HeLa [24] = experiment: Survival of human HeLa cells at 0.1 uM under deem light after 96 hrs by MTT assay relative to control; type: functional; settings: read-out: Survival
[25] = Cytotoxicity against human 2780.9S cells under deem light after 96 hrs by MTT assay; type: functional, cell-based
NCI-H69 [26] = experiment: Survival of human H69 cells at 0.1 uM under deem light after 96 hrs by MTT assay relative to control; type: functional; settings: NCI-H69, 96 h, read-out: Survival
SiHa [27] = experiment: Survival of human SIHA cells at 50 uM under deem light after 96 hrs by MTT assay relative to control; type: functional; settings: read-out: Survival
SiHa [28] = experiment: Survival of human SIHA cells at 10 uM under deem light after 96 hrs by MTT assay relative to control; type: functional; settings: read-out: Survival
[29] = Survival of human 2780.9S cells at 1 uM under deem light after 96 hrs by MTT assay relative to control; type: functional; settings: read-out: Survival
NCI-H69 [30] = experiment: Survival of human H69 cells at 1 uM under deem light after 96 hrs by MTT assay relative to control; type: functional; settings: NCI-H69, 96 h, read-out: Survival
Raji [31] = experiment: Cytotoxicity against human Raji cells under deem light after 96 hrs by MTT assay; type: functional, cell-based
[32] = Photohemolysis in human RBC in absence of light; type: ADME, cell-based; settings: erythrocyte
[33] = Photohemolysis in human RBC assessed as concentration required to 50% hemolysis under light exposure for 10 mins; type: ADME, cell-based, Erythrocyte; settings: human red blood cells, read-out: Activity
HeLa [34] = experiment: Survival of human HeLa cells at 10 uM under deem light after 96 hrs by MTT assay relative to control; type: functional; settings: read-out: Survival
SiHa [35] = experiment: Cytotoxicity against human SIHA cells under deem light after 96 hrs by MTT assay; type: functional, cell-based
[36] = Survival of human H209 cells at 0.1 uM under deem light after 96 hrs by MTT assay relative to control; type: functional; settings: NCI-H209, 96 h, read-out: Survival
K562 [37] = experiment: Survival of human K562 cells at 50 uM under deem light after 96 hrs by MTT assay relative to control; type: functional; settings: K562, 96 h, read-out: Survival
HeLa [38] = experiment: Cytotoxicity against human HeLa cells under deem light after 96 hrs by MTT assay; type: functional, cell-based
NCI-H69 [39] = experiment: Cytotoxicity against human H69 cells under deem light after 96 hrs by MTT assay; type: functional, cell-based; settings: NCI-H69, 96 h
HeLa [40] = experiment: Survival of human HeLa cells at 50 uM under deem light after 96 hrs by MTT assay relative to control; type: functional; settings: read-out: Survival
NCI-H69 [41] = experiment: Survival of human H69 cells at 50 uM under deem light after 96 hrs by MTT assay relative to control; type: functional; settings: NCI-H69, 96 h, read-out: Survival
[42] = Photohemolysis in human RBC assessed as concentration required to 50% hemolysis under light exposure for 5 mins; type: ADME, cell-based, Erythrocyte; settings: human red blood cells, read-out: Activity
[43] = Survival of human 2780.9S cells at 50 uM under deem light after 96 hrs by MTT assay relative to control; type: functional; settings: read-out: Survival
[44] = Survival of human H209 cells at 10 uM under deem light after 96 hrs by MTT assay relative to control; type: functional; settings: NCI-H209, 96 h, read-out: Survival
NCI-H69 [45] = experiment: Survival of human H69 cells at 10 uM under deem light after 96 hrs by MTT assay relative to control; type: functional; settings: NCI-H69, 96 h, read-out: Survival
HeLa [46] = experiment: Survival of human HeLa cells at 100 uM under deem light after 96 hrs by MTT assay relative to control; type: functional; settings: read-out: Survival
K562 [47] = experiment: Survival of human K562 cells at 0.1 uM under deem light after 96 hrs by MTT assay relative to control; type: functional; settings: K562, 96 h, read-out: Survival
[48] = Survival of human 2780.9S cells at 100 uM under deem light after 96 hrs by MTT assay relative to control; type: functional; settings: read-out: Survival
[49] = Survival of human MDA-MB cells at 10 uM under deem light after 96 hrs by MTT assay relative to control; type: functional; settings: read-out: Survival
[50] = Survival of human MDA-MB cells at 1 uM under deem light after 96 hrs by MTT assay relative to control; type: functional; settings: read-out: Survival

CC1=C(CCC(=O)O)c2cc3nc(cc4[nH]c(cc5[nH]c(cc1n2)c(C)c5C(C)O)c(C)c4C(C)O)C(C)=C3CCC(=O)O (stereo unspecified) [HAEMAPORPHYRIN]
viability at 1 µM (SiHa [1]): 92.2%
viability at 100 µM (Raji [2]): 17%
IC50 (Daudi): 15 µM
IC50 (K562 [3]): 44 µM
IC50 [4]: > 100 µM
viability at 10 µM (Raji [5]): 71.4%
viability at 100 µM [6]: 84.6%
viability at 0.1 µM [7]: 136%
viability at 100 µM (SiHa [8]): 44.5%
viability at 1 µM (K562 [9]): 82.7%
viability at 100 µM (K562 [10]): 32.1%
viability at 100 µM [11]: 82.8%
viability at 0.1 µM (Raji [12]): 92.1%
viability at 50 µM [13]: 93.3%
viability at 10 µM (K562 [14]): 82.5%
viability at 50 µM (Raji [15]): 27.6%
viability at 1 µM (HeLa [16]): 103%
viability at 1 µM [17]: 94%
viability at 100 µM (NCI-H69 [18]): 62.6%
viability at 50 µM [19]: 107%
viability at 10 µM [20]: 75.5%
viability at 1 µM (Raji [21]): 89.6%
viability at 0.1 µM [22]: 102%
hemolysis at 10 min, 0.375 µM [23]: 100%
viability at 0.1 µM (HeLa [24]): 85.8%
IC50 [25]: > 100 µM
viability at 0.1 µM (NCI-H69 [26]): 92.2%
viability at 50 µM (SiHa [27]): 52.6%
viability at 10 µM (SiHa [28]): 81.6%
viability at 1 µM [29]: 82.5%
viability at 1 µM (NCI-H69 [30]): 105%
IC50 (Raji [31]): 57 µM
Activity [32]: Non-toxic
HC50 at 10 min [33]: 460 nM
viability at 10 µM (HeLa [34]): 113%
IC50 (SiHa [35]): 56 µM
viability at 0.1 µM [36]: 91.4%
viability at 50 µM (K562 [37]): 55.9%
IC50 (HeLa [38]): 71 µM
IC50 (NCI-H69 [39]): 70 µM
viability at 50 µM (HeLa [40]): 109%
viability at 50 µM (NCI-H69 [41]): 82.9%
HC50 at 5 min [42]: 170 nM
viability at 50 µM [43]: 81.4%
viability at 10 µM [44]: 99.5%
viability at 10 µM (NCI-H69 [45]): 104%
viability at 100 µM (HeLa [46]): 104%
viability at 0.1 µM (K562 [47]): 68.7%
viability at 100 µM [48]: 43.8%
viability at 10 µM [49]: 104%
viability at 1 µM [50]: 115%
